Entries after “also recorded” stand apart in the source; their conditions may differ.
Experiments:
[1] = tested on: polyclonal site V-specific T cells; assay: Intracellular IFN-γ, peptide-stimulated polyclonal site V-specific T cells; type: cell-based, mice; settings: 10^−7–10^−12 M peptide; versus wild type site V
[2] = tested on: TCR-V T cells; type: cell-based, mice; settings: for functional avidity for TCR-V T cells (in words): 10^−7–10^−12 M peptide, versus wild type site V
[3] = tested on: naïve TCR-V T cells; assay: In vivo proliferation of CFSE-labeled naïve TCR-V cells; parameters: species or system B6 mice; settings: peptide s.c. 100 μg in IFA, or rVV i.v. 10^7 PFU; 3 days
[4] = target: T1, H-2D^b (Mus musculus, UniProt P01899); assay: Stability; type: binding; settings: for half-life of peptide/H-2D^b complexes: RMA/s cells loaded overnight at 29 °C, washed, decay at 37 °C, flow cytometry; for pMHC stability (in words): versus wild type site V peptide, RMA/s decay at 37 °C
T1 sequence (P01899 25-362): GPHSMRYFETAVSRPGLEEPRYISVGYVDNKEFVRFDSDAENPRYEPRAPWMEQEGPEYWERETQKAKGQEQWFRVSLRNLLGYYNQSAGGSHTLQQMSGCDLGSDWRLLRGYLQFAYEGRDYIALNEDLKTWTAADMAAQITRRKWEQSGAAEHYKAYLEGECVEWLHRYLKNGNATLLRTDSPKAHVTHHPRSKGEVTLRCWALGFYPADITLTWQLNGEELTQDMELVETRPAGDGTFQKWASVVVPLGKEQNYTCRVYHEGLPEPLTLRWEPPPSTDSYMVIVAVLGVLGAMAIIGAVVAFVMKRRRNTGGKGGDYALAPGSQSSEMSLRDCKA
T1 sequence (P01887 21-119 partner): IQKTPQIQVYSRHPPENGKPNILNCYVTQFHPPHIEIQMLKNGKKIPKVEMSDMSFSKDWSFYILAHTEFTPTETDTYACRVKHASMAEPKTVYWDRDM

[5] = tested on: D^b; settings: Flu determinants; cited from earlier work
[6] = target: H-2D^b (mouse (endogenous in RMA/s)); assay: flow cytometry on cells

Row | Substance | half-life of peptide/H-2D^b complexes [4] | pMHC stability (in words) [4] | half-life of the pMHC complex [6] [hours] | also measured
1 | AGINNLDNL [Q489A] | approximately 4 hours | formed more stable pMHC than the wild type site V peptide; also recorded: most dramatic increase in pMHC stability |  | functional avidity for polyclonal site V-specific T cells (in words) [1]: not increased; functional avidity for TCR-V T cells (in words) [2]: not increased; TCR-V division on bypassing cross-presentation (in words) [3]: almost all of the TCR-V cells underwent division
2 | ASNENMETM [NP366–374] |  |  |  | estimated half-life of D^b pMHC [5]: ~ 4 hours
3 | PA224–233: dominant D^b-Flu determinant (SSLENFRAYV; UniProt P03433 224-233, looked up, fragment) |  |  |  | estimated half-life of D^b pMHC [5]: ~16 hours
4 | QAINNLDNL [G490A] | ~2.75 h | formed more stable pMHC than the wild type site V peptide; also recorded: moderately increased stability compared to wt site V; also recorded: modest increase in pMHC stability |  | functional avidity for polyclonal site V-specific T cells (in words) [1]: not increased; reduction of functional avidity for TCR-V T cells [2]: five; functional avidity for TCR-V T cells (in words) [2]: not increased
5 | SAINNYAQKL [site I, reference compound] | greater than 4 hours | most stable |  | 
6 | SV40 TAg site I peptide (…) |  |  | > 4 | 
7 | SV40 TAg site V peptide (…) |  |  | 2 | 
8 | site V variant peptide G490A (…) |  |  | 2.75 | 
9 | site V variant peptide Q489A (…) |  |  | 4 | fold increase of relative affinity against wild type site V [6]: 4 fold

Reference: publication PMC3536056 (Journal of immunology (Baltimore, Md. : 1950), 2012)
